# Results: patent publication US10336697B2, “Spiro[cyclobutane-1,3′-indolin]-2′-one derivatives as bromodomain inhibitors” (Orion Corporation, priority 2015, dated 2019)
# Biological target: Bet BRD4 full length bromo-domain protein (Homo sapiens, UniProt O60885)
# Experiment: Bet bromodomain TR-FRET assay (displacement of acetyl histone peptide)
# Assay type: binding
# Conditions: Bet BRD4 full length bromodomain protein, 300 nM acetyl histone peptide substrate, read-out: IC50
row,SMILES,IC50
1,"O=C(NC1CCCCC1)c1cc(NS(=O)(=O)c2ccc(F)cc2F)cc2c1NC(=O)C21CCC1 [Compound 55, N-cyclohexyl-5′-(2,4-difluorophenylsulfonamido)-2′-oxospiro[cyclobutane-1,3′-indoline]-7′-carboxamide]",600 to 1000 nM
2,"CN1CCC(NC(=O)c2cc(N(C)S(=O)(=O)c3ccc(F)cc3F)cc3c2NC(=O)C32CCC2)CC1 [Compound 72, 5′-((2,4-Difluoro-N-methylphenyl)sulfonamido)-N-(1-methylpiperidin-4-yl)-2′-oxospiro[cyclobutane-1,3′-indoline]-7′-carboxamide]",> 1000 nM
3,"CN1CCC(Oc2cc(NS(=O)(=O)c3ccc(F)cc3Br)cc3c2NC(=O)C32CCC2)CC1 [Compound 132, 2-Bromo-4-fluoro-N-(7′-((1-methylpiperidin-4-yl)oxy)-2′-oxospiro[cyclobutane-1,3′-indolin]-5′-yl)benzenesulfonamide]",< 600 nM
4,"CN1CCC(Oc2cc(NS(=O)(=O)c3ccc(Cl)cc3F)cc3c2NC(=O)C32CCC2)CC1 [Compound 130, 4-Chloro-2-fluoro-N-(7′-((1-methylpiperidin-4-yl)oxy)-2′-oxospiro[cyclobutane-1,3′-indolin]-5′-yl)benzenesulfonamide]",< 600 nM
5,"COc1ccccc1S(=O)(=O)Nc1cc(Oc2ccccn2)c2c(c1)C1(CCC1)C(=O)N2 [Compound 124, 2-Methoxy-N-(2′-oxo-7′-(pyridin-2-yloxy)spiro[cyclobutane-1,3′-indolin]-5′-yl)benzenesulfonamide]",< 600 nM
6,"O=C1Nc2c(-c3ccc(O)nc3)cc(NS(=O)(=O)c3ccc(F)cc3F)cc2C12CCC2 [Compound 99, 2,4-Difluoro-N-(7′-(6-hydroxypyridin-3-yl)-2′-oxospiro [cyclobutane-1,3′-indolin]-5′-yl)benzenesulfonamide]",600 to 1000 nM
7,"CS(=O)(=O)N1CCC(Oc2cc(NS(=O)(=O)c3ccc(Cl)cc3F)cc3c2NC(=O)C32CCC2)CC1 [Compound-210, 4-Chloro-2-fluoro-N-(7′-((1-(methylsulfonyl)piperidin-4-yl)-oxy)-2′-oxospiro[cyclobutane-1,3′-indolin]-5′-yl)benzenesulfonamide]",< 600 nM
8,"O=C1Nc2c(NC3CCc4cc(F)ccc43)cc(NS(=O)(=O)c3ccc(F)cc3F)cc2C12CCC2 (stereo not drawn) [Compound 26, 2,4-Difluoro-N-(7′-((5-fluoro-2,3-dihydro-1H-inden-1-yl)amino)-2′-oxospiro[cyclobutane-1,3′-indolin]-5′-yl)benzenesulfonamide]",> 1000 nM
9,"COc1ccccc1S(=O)(=O)Nc1cc(C(C)C2CCCN(C)C2)c2c(c1)C1(CCC1)C(=O)N2 (single isomer, unassigned) [Compound 173, 2-Methoxy-N-(7′-(1-(1-methylpiperidin-3-yl)ethyl)-2′-oxospiro[cyclobutane-1,3′-indolin]-5′-yl)benzenesulfonamide]",> 1000 nM
10,"COc1ccccc1S(C)(=O)=Nc1cc(N)c2c(c1)C1(CCC1)C(=O)N2 (stereo not drawn) [Compound-182, 7′-Amino-5′-(((2-methoxyphenyl)(methyl)(oxo)-l6-sulfanylidene)amino)spiro[cyclobutane-1,3′-indolin]-2′-one]",> 1000 nM
11,"CN1CCC(NC(=O)c2cc(NS(=O)(=O)c3ccccc3F)cc3c2NC(=O)C32CCC2)CC1 [Compound 73, 5′-(2-Fluorophenylsulfonamido)-N-(1-methylpiperidin-4-yl)-2′-oxospiro[cyclobutane-1,3′-indoline]-7′-carboxamide]",< 600 nM
12,"COc1ccccc1S(=O)(=O)Nc1cc(Oc2ccc(N)nc2)c2c(c1)C1(CCC1)C(=O)N2 [Compound 145, N-(7′-((6-aminopyridin-3-yl)oxy)-2′-oxospiro[cyclobutane-1,3′-indolin]-5′-yl)-2-methoxybenzenesulfonamide]",< 600 nM
13,"COc1ccccc1S(=O)(=O)Nc1cc(NC2CCCN(C)C2)c2c(c1)C1(CCC1)C(=O)N2 (stereo not drawn) [Compound 38, 2-Methoxy-N-(7′-((1-methylpiperidin-3-yl)amino)-2′-oxospiro[cyclobutane-1,3′-indolin]-5′-yl)benzenesulfonamide]",< 600 nM
14,"CN1CCC(NC(=O)c2cc(NS(=O)(=O)N3CCCCC3)cc3c2NC(=O)C32CCC2)CC1 [Compound 85, N-(1-methylpiperidin-4-yl)-2′-oxo-5′-(piperidine-1-sulfon amido)spiro[cyclobutane-1,3′-indoline]-7′-carboxamide]",> 1000 nM

# Results, then the compound that gave them:
row,IC50,SMILES
1,< 600 nM,"CN1CCC(NC(=O)c2cc(NS(=O)(=O)c3ccc(Br)cc3F)cc3c2NC(=O)C32CCC2)CC1 [Compound 74, 5′-((4-Bromo-2-fluorophenyl)sulfonamido)-N-(1-methylpiperidin-4-yl)-2′-oxospiro[cyclobutane-1,3′-indoline]-7′-carboxamide]"
2,< 600 nM,"COc1ccccc1S(=O)(=O)Nc1cc(OC2CCN(C)CC2)c2c(c1)C1(CCC1)C(=O)N2 [Compound-127, 2-methoxy-N-(7′-((1-methylpiperidin-4-yl)oxy)-2′-oxospiro[cyclobutane-1,3′-indolin]-5′-yl)benzenesulfonamide]"
3,600 to 1000 nM,"COc1ccccc1S(=O)(=O)Nc1cc(C(C)c2ccccc2)c2c(c1)C1(CCC1)C(=O)N2 (single isomer, unassigned) [Compound 115, 2-Methoxy-N-(2′-oxo-7′-(1-phenylethyl)spiro [cyclobutane-1,3′-indolin]-5′-yl)benzenesulfonamide]"
4,< 600 nM,"COc1ccccc1S(=O)(=O)Nc1cc(OCc2ccc(F)cn2)c2c(c1)C1(CCC1)C(=O)N2 [Compound 148, N-(7′-((5-fluoropyridin-2-yl)methoxy)-2′-oxospiro[cyclobutane-1,3′-indolin]-5′-yl)-2-methoxybenzenesulfonamide]"
5,< 600 nM,"COc1ccccc1S(=O)(=O)Nc1cc(NC2CCN(C)CC2F)c2c(c1)C1(CCC1)C(=O)N2 (stereo not drawn) [Compound 78, N-(7′-((3-fluoro-1-methylpiperidin-4-yl)amino)-2′-oxospiro [cyclobutane-1,3′-indolin]-5′-yl)-2-methoxy benzenesulfonamide]"
6,< 600 nM,"O=C1Nc2c(CO)cc(NS(=O)(=O)c3ccc(F)cc3F)cc2C12CCC2 [Compound 69, 2,4-Difluoro-N-(7′-(hydroxymethyl)-2′-oxospiro[cyclobutane-1,3′-indolin]-5′-yl)benzenesulfonamide]"
7,< 600 nM,"COc1ccccc1S(=O)(=O)Nc1cc(Cc2cccc(F)c2)c2c(c1)C1(CCC1)C(=O)N2 [Compound 10, N-(7′-(3-fluorobenzyl)-2′-oxospiro[cyclobutane-1,3′-indolin]-5′-yl)-2-methoxybenzenesulfonamide]"
8,< 600 nM,"CN1CCc2ccc(-c3cc(NS(=O)(=O)c4ccc(F)cc4F)cc4c3NC(=O)C43CCC3)cc2C1 [Compound 106, 2,4-Difluoro-N-(7′-(2-methyl-1,2,3,4-tetrahydroisoquinolin-7-yl)-2′-oxospiro[cyclobutane-1,3′-indolin]-5′-yl)benzenesulfonamide]"
9,< 600 nM,"COc1ccccc1S(=O)(=O)Nc1cc(OCc2cccnc2)c2c(c1)C1(CCC1)C(=O)N2 [Compound 157, 2-Methoxy-N-(2′-oxo-7′-(pyridin-3-ylmethoxy)spiro[cyclobutane-1,3′-indolin]-5′-yl)benzenesulfonamide]"
10,< 600 nM,"COc1ccccc1S(=O)(=O)Nc1cc(C(=O)NC2CCNCC2)c2c(c1)C1(CCC1)C(=O)N2 [Compound 64, 5′-((2-methoxyphenyl)sulfonamido)-2′-oxo-N-(piperidin-4-yl)spiro[cyclobutane-1,3′-indoline]-7′-carboxamide]"
11,< 600 nM,"C=C(c1ccccc1)c1cc(NS(=O)(=O)c2ccccc2OC)cc2c1NC(=O)C21CCC1 [Compound 11, 2-Methoxy-N-(2′-oxo-7′-(1-phenylvinyl)spiro[cyclobutane-1,3′-indolin]-5′-yl)benzenesulfonamide]"
12,< 600 nM,"O=C1CCC(Oc2cc(NS(=O)(=O)c3ccc(Cl)cc3F)cc3c2NC(=O)C32CCC2)CC1 [Compound 176, 4-chloro-2-fluoro-N-(2′-oxo-7′-((4-oxocyclohexyl)oxy)spiro[cyclobutane-1,3′-indolin]-5′-yl)benzenesulfonamide]"
13,< 600 nM,"CN1CCC(Oc2cc(NS(=O)(=O)c3ccccc3Cl)cc3c2NC(=O)C32CCC2)CC1 [Compound 133, 2-Chloro-N-(7′-((1-methylpiperidin-4-yl)oxy)-2′-oxospiro[cyclobutane-1,3′-indolin]-5′-yl)benzenesulfonamide]"
14,< 600 nM,"CC1CC(Oc2cc(NS(=O)(=O)c3ccc(Cl)cc3F)cc3c2NC(=O)C32CCC2)CC(C)N1 (stereo not drawn) [compound 201, 4-Chloro-N-(7′-((2,6-dimethylpiperidin-4-yl)oxy)-2′-oxospiro[cyclobutane-1,3′-indolin]-5′-yl)-2-fluorobenzenesulfonamide]"
15,< 600 nM,"COc1cc(F)ccc1S(=O)(=O)Nc1cc(Cc2ccccc2)c2c(c1)C1(CCC1)C(=O)N2 [Compound 94, N-(7′-benzyl-2′-oxospiro[cyclobutane-1,3′-indolin]-5′-yl)-4-fluoro-2-methoxybenzenesulfonamide]"
16,< 600 nM,"COc1ccccc1S(=O)(=O)Nc1cc(OCc2ccccn2)c2c(c1)C1(CCC1)C(=O)N2 [Compound 158, 2-Methoxy-N-(2′-oxo-7′-(pyridin-2-ylmethoxy)spiro[cyclobutane-1,3′-indolin]-5′-yl)benzenesulfonamide]"
17,> 1000 nM,"O=C1Nc2c(Nc3ccncc3)cc(NS(=O)(=O)c3ccc(F)cc3F)cc2C12CCC2 [Compound 62, 2,4-Difluoro-N-(2′-oxo-7′-(pyridin-4-ylamino)spiro[cyclobutane-1,3′-indolin]-5′-yl)benzenesulfonamide]"
18,< 600 nM,"O=C1Nc2c(NCc3cnc[nH]3)cc(NS(=O)(=O)c3ccc(F)cc3F)cc2C12CCC2 [Compound 25, N-(7′-(((1H-imidazol-5-yl)methyl)amino)-2′-oxospiro [cyclo butane-1,3′-indolin]-5′-yl)-2,4-difluorobenzene sulfonamide]"

# Same assay, conditions: IC50, Bet BRD4 full length bromodomain protein, 300 nM acetyl histone peptide substrate
row,SMILES,IC50
1,"COc1ccccc1S(=O)(=O)Nc1cc(OC(=O)N2CCN(C)CC2)c2c(c1)C1(CCC1)C(=O)N2 [Compound 169, 5′-((2-Methoxyphenyl)sulfonamido)-2′-oxospiro[cyclobutane-1,3′-indolin]-7′-yl 4-methylpiperazine-1-carboxylate]",< 600 nM
